# Experiments:
# Assay type in all cases: in vivo
# [1] = test system: Abutilon; assay: Example 12 indoor pot experiment, stem and leaf spray, visual control effect 30 days after treatment, Gowing method
# Experimental: (§1) The combined effect of the composition on the weeds was clarified by the indoor pot experiment.
# (§2) The weed cultivation and test material cultivation method was as follows: quantitative weed seeds abutilon and bristlegrass were respectively sown in a paper cup filled with nutrient soil with a diameter of 7 cm, and then cultivated in the greenhouse after covering the soil, suppressing and watering. The stem and leaf spray treatment was performed when the grass weeds grew to 5-7 leaf stage, and broad-leaved weeds grew to 6-8 leaf stage; the tests were repeated for 3 times. the treatment and drug solution naturally dried, the weeds were placed in the greenhouse to be managed according to conventional methods. According to the suppression or death of the weeds, a visual control effect investigation was conducted 30 days after the treatment.
# (§3) The application adopted the Gowing method to evaluate the combined effect of the proposed composition.
# (§4) X—Weed control effect when the amount of herbicide component A is P;
# (§5) Y—Weed control effect when the amount of herbicide component B is Q;
# (§6) E0—Theoretical control effect when the amount of herbicide component A is […];
# (§7) E—The measured control effect after the herbicide component A and the herbicide component B are mixed according to the above ratio.
# (§8) When E−E0>10%, it is synergism; when E−E0<−10%, it is antagonism; when E−E0 value is between ±10%, it is addition.
# [2] = test system: Bristlegrass; assay: as above
# Experimental: as §1, §2, §3, §4, §5, §6, §7, §8
# [3] = test system: goosegrass (collected from Zhengzhou, Henan); assay: Example 13 combined effect on weeds, Gowing method
# Experimental: as §2, §3, §4, §5, §6, §7, §8
# (§9) The test targets were horseweed herb collected from Shenyang, Liaoning and goosegrass collected from Zhengzhou, Henan.
# [4] = test system: Horseweed herb (collected from Shenyang, Liaoning); assay: Example 13 combined effect on weeds, Gowing method
# Experimental: as §2, §3, §4, §5, §6, §7, §8, §9
# [5] = test system: Abutilon; assay: Example 15 indoor pot planting, death rate / herbicidal speed, weeds in 6-leaf stage
# Experimental: (§10) The death rate of weeds after application of the herbicidal composition of the present application was measured and compared with the herbicidal rate when a single component was used. The test used the method of indoor pot planting. At the time of treatment, abutilon and barnyardgrass were in 6-leaf stage.
# [6] = test system: Echinochloacrusgalli; assay: as above
# Experimental: as §10
# [7] = test system: Bristlegrass; assay: Greenhouse pot test, pre-emergence soil treatment, visual control effect 30 days after treatment, Gowing method
# Experimental: In the present application, indoor combined action of the compound of herbicide active component A and B on weeds was measured to determine the combined effect of the composition on weeds, wherein the structure of the active component A was as follows:
# The weed cultivation method was as follows: quantitative weed seeds abutilon and bristlegrass were respectively sown in a paper cup filled with nutrient soil with a diameter of 7 cm, and then cultivated in the greenhouse after covering the soil, suppressing and watering. The post-emergence stem and leaf treatment was performed when the grass weeds grew to 5-7 leaf stage, broad-leaved weeds grew to 6-8 leaf stage; the pre-emergence soil treatment was performed the second day after sowing, and the early post-emergence treatment was performed after sowing and before emergence; the experiment was repeated 3 times. After the treatment and drug solution naturally dried, the weeds were placed in the greenhouse to be managed according to conventional methods. According to the suppression or death of the weeds, a visual control effect investigation was conducted 30 days after the treatment. The application adopted the Gowing method to evaluate the combined effect of the proposed composition.
# as §4, §5, §6, §7, §8
# [8] = test system: Eclipta alba; assay: as above
# [9] = Example 12 Table 1, dose 37.5 ga.i./hm^2
# [10] = Example 12 Table 1, dose 75 ga.i./hm^2
# [11] = Example 12 Table 1, dose 150 ga.i./hm^2
# [12] = Example 12 Table 1, dose 300 ga.i./hm^2
# [13] = Example 13 Table 2, dose 37.5 ga.i./hm^2
# [14] = Example 13 Table 2, dose 75 ga.i./hm^2
# [15] = Example 13 Table 2, dose 150 ga.i./hm^2
# [16] = Example 13 Table 2, dose 300 ga.i./hm^2
# [17] = Table 11, 7 days after treatment, dose 50 ga.i./hm^2
# [18] = Table 11, 7 days after treatment, dose 100 ga.i./hm^2
# [19] = Table 11, 7 days after treatment, dose 200 ga.i./hm^2
# [20] = Table 11, 7 days after treatment, dose 400 ga.i./hm^2
# [21] = Table 11, 15 days after treatment, dose 50 ga.i./hm^2
# [22] = Table 11, 15 days after treatment, dose 100 ga.i./hm^2
# [23] = Table 11, 15 days after treatment, dose 200 ga.i./hm^2
# [24] = Table 11, 15 days after treatment, dose 400 ga.i./hm^2
# [25] = Table 11, 30 days after treatment, dose 50 ga.i./hm^2
# [26] = Table 11, 30 days after treatment, dose 100 ga.i./hm^2
# [27] = Table 11, 30 days after treatment, dose 200 ga.i./hm^2
# [28] = Table 11, 30 days after treatment, dose 400 ga.i./hm^2
compound,measurement,setting,value
CC(C)N.O=C(O)CNCP(=O)(O)O [Glyphosate isopropylamine],Measured value E,[1]; [9],10%
same,Measured value E,[1]; [10],20%
same,Measured value E,[1]; [11],50%
same,Measured value E,[1]; [12],65%
same,Measured value E,[2]; [9],0%
same,Measured value E,[2]; [10],15%
same,Measured value E,[2]; [11],30%
same,Measured value E,[2]; [12],45%
same,Measured value E,[3]; [13],5%
same,Measured value E,[3]; [14],25%
same,Measured value E,[3]; [15],50%
same,Measured value E,[3]; [16],65%
same,Measured value E,[4]; [13],25%
same,Measured value E,[4]; [14],35%
same,Measured value E,[4]; [15],65%
same,Measured value E,[4]; [16],70%
same,Control effect (visual observation %),[5]; [17],5.8%
same,Control effect (visual observation %),[5]; [18],16.2%
same,Control effect (visual observation %),[5]; [19],24.6%
same,Control effect (visual observation %),[5]; [20],43.5%
same,Control effect (visual observation %),[5]; [21],9.0%
same,Control effect (visual observation %),[5]; [22],26.2%
same,Control effect (visual observation %),[5]; [23],38.3%
same,Control effect (visual observation %),[5]; [24],38.0%
same,Control effect (visual observation %),[5]; [25],6.8%
same,Control effect (visual observation %),[5]; [26],20.0%
same,Control effect (visual observation %),[5]; [27],62.6%
same,Control effect (visual observation %),[5]; [28],79.9%
same,Control effect (visual observation %),[6]; [17],4.1%
same,Control effect (visual observation %),[6]; [18],36.9%
same,Control effect (visual observation %),[6]; [19],62.2%
same,Control effect (visual observation %),[6]; [20],66.7%
same,Control effect (visual observation %),[6]; [21],34.3%
same,Control effect (visual observation %),[6]; [22],48.7%
same,Control effect (visual observation %),[6]; [23],63.9%
same,Control effect (visual observation %),[6]; [24],64.5%
same,Control effect (visual observation %),[6]; [25],29.6%
same,Control effect (visual observation %),[6]; [26],68.5%
same,Control effect (visual observation %),[6]; [27],100%
same,Control effect (visual observation %),[6]; [28],99.0%
CCCCOCN(C(=O)CCl)c1c(CC)cccc1CC [Butachlor],Measured value E,"[7]; Table 3, dose 75 ga.i./hm^2",45%
same,Measured value E,"[7]; Table 3, dose 150 ga.i./hm^2",60%
same,Measured value E,"[8]; Table 3, dose 75 ga.i./hm^2",15%
same,Measured value E,"[8]; Table 3, dose 150 ga.i./hm^2",25%

# Reference: patent publication US20210112813A1, “HERBICIDAL COMPOSITION AND USE THEREOF” (NANTONG JIANGSHAN AGROCHEMICAL & CHEMICALS CO., LTD., priority 2019, published 2021)
